Results: ChEMBL document CHEMBL1287684, “5-(pyridinon-1-yl)indazoles and 5-(furopyridinon-5-yl)indazoles as MCH-1 antagonists” (Bioorg Med Chem Lett, 2010)
Converted amounts (≈) assume the structure as drawn.

How the values were obtained:
[1] = biological target: T1, Melanin-concentrating hormone receptor 1 (Homo sapiens, UniProt Q99705); experiment: Displacement of [3H]4-(benzyloxy)-1-(1-(2-(pyrrolidin-1-yl)ethyl)-1H-indazol-5-yl)pyridin-2(1H)-one from MCH-1 receptor expressed in CHO-K1 cells; assay type: cell-based
[2] = biological target: Voltage-gated inwardly rectifying potassium channel KCNH2 (Homo sapiens, UniProt Q12809); experiment: Inhibition of human ERG expressed in HEK cells by mini-patch clamp assay
[3] = biological target: Cytochrome P450 3A4 (Homo sapiens, UniProt P08684); experiment: Inhibition of CYP3A4; assay type: ADME
[4] = Half life in mouse liver microsomes; assay type: ADME, Microsome
[5] = Half life in human liver microsomes; assay type: ADME, Microsome
[6] = Aqueous solubility in PBS at pH 7.4; assay type: physicochemical
[7] = tested on: Mus musculus; experiment: Antiobesity activity in diet-induced obese C57BL/6J mouse model assessed as reduction of body weight at 30 mg/kg, po bid for 5 days; assay type: functional; parameters: scale not given: the % may be the effect or the level left
[8] = biological target: T2, Cytochrome P450 1A2 (Homo sapiens, UniProt P05177); experiment: Inhibition of CYP1A2; assay type: ADME
T2 sequence (P05177 whole entry): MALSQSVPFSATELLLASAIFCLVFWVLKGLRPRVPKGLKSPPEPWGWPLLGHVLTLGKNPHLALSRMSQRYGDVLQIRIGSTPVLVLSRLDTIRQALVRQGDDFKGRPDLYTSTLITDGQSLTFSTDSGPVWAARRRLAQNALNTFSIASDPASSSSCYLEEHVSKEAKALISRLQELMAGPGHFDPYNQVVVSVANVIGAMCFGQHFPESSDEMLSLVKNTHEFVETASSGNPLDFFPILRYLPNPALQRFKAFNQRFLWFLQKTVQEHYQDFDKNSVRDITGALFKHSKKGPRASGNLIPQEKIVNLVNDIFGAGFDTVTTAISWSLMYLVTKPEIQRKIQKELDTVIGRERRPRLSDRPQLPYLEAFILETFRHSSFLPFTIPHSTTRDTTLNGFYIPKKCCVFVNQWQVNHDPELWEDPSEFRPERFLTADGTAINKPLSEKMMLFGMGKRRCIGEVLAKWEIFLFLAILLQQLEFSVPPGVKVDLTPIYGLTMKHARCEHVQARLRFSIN

[9] = biological target: T1, Melanin-concentrating hormone receptor 1; experiment: Antagonistic activity at MCH-1 receptor expressed in CHO-K1 cell assessed as inhibition of MCH-induced calcium release; assay type: functional, cell-based
[10] = Plasma concentration in mouse at 30 mg/kg after 6 hrs; assay type: ADME, organism-based; parameters: dose 30 mg/kg
[11] = Drug level in mouse brain at 30 mg/kg after 6 hrs; assay type: ADME, organism-based; parameters: dose 30 mg/kg; conditions: read-out: Drug uptake
[12] = Ratio of drug level in brain to plasma in mouse at 30 mg/kg after 6 hrs; assay type: ADME, organism-based; parameters: dose 30 mg/kg; conditions: read-out: BPR
[13] = biological target: T3, Cytochrome P450 2B6 (Homo sapiens, UniProt P20813); experiment: Inhibition of CYP2B6; assay type: ADME
T3 sequence (P20813 whole entry): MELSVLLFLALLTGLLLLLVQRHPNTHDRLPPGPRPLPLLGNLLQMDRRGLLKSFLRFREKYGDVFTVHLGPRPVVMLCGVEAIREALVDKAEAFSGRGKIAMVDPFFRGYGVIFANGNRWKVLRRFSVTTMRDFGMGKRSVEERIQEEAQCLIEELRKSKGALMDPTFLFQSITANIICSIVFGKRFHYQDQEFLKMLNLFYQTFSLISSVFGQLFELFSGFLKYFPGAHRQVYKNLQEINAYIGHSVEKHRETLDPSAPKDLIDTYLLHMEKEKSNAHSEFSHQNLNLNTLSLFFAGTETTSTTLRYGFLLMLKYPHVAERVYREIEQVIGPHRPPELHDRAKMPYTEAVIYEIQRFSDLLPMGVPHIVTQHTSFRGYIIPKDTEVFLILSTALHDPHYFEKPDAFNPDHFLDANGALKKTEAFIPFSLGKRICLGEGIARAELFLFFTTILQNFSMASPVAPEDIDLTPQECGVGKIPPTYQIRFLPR

[14] = biological target: Cytochrome P450 2C19 (Homo sapiens, UniProt P33261); experiment: Inhibition of CYP2C19; assay type: ADME
[15] = biological target: Cytochrome P450 2D6 (Homo sapiens, UniProt P10635); experiment: Inhibition of CYP2D6; assay type: ADME
[16] = biological target: Cytochrome P450 2C9 (Homo sapiens, UniProt P11712)
[17] = Plasma concentration in mouse at 10 mg/kg after 6 hrs; assay type: ADME, organism-based; parameters: dose 10 mg/kg
[18] = Drug level in mouse brain at 10 mg/kg after 6 hrs; assay type: ADME, organism-based; parameters: dose 10 mg/kg; conditions: read-out: Drug uptake
[19] = Ratio of drug level in brain to plasma in mouse at 10 mg/kg after 6 hrs; assay type: ADME, organism-based; parameters: dose 10 mg/kg; conditions: read-out: BPR
[20] = tested on: Mus musculus; experiment: Antiobesity activity in diet-induced obese C57BL/6J mouse model assessed as reduction of body weight at 30 mg/kg, po qd for 5 days; assay type: functional; parameters: scale not given: the % may be the effect or the level left

Sequence of Voltage-gated inwardly rectifying potassium channel KCNH2 (Q12809 whole entry): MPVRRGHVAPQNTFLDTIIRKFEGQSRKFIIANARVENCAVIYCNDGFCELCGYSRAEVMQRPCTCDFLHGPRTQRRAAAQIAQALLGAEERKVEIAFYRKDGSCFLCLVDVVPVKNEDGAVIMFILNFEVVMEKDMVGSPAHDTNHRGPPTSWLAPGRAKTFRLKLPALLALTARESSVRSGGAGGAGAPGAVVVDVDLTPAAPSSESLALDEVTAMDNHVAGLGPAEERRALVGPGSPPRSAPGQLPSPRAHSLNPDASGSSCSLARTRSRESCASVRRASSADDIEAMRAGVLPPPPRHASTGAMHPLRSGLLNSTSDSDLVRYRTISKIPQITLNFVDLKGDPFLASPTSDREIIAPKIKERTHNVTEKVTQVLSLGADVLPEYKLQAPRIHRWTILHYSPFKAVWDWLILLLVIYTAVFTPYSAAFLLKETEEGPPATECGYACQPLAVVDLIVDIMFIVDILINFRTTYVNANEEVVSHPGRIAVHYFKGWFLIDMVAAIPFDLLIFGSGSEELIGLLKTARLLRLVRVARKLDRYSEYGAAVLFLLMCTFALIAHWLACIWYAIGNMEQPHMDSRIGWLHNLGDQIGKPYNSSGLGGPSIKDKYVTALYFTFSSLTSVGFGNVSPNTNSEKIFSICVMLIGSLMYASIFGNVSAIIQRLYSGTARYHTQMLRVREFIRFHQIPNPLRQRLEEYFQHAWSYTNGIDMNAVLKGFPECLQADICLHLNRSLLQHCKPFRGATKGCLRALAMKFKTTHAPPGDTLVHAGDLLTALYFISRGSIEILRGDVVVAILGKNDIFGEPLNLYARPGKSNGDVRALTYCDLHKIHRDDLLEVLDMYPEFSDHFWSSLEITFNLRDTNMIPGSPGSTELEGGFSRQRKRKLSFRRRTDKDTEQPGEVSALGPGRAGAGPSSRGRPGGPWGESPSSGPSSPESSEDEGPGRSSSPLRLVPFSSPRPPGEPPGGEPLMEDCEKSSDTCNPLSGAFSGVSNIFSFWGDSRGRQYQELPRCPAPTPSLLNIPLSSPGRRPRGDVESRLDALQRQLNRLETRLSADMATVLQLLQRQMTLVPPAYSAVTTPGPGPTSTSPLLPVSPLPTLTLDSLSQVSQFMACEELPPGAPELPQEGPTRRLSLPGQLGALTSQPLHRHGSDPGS
T1 sequence (Q99705 whole entry): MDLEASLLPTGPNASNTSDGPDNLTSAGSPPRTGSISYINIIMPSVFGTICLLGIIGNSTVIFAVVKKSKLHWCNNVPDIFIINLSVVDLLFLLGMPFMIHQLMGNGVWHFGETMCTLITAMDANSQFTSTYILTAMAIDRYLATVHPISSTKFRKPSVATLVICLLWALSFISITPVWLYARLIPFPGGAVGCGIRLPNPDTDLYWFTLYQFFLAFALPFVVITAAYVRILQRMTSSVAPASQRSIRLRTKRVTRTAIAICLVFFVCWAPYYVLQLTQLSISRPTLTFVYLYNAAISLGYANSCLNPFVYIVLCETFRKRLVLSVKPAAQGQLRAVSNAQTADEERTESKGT
Sequence of Cytochrome P450 3A4 (P08684 whole entry): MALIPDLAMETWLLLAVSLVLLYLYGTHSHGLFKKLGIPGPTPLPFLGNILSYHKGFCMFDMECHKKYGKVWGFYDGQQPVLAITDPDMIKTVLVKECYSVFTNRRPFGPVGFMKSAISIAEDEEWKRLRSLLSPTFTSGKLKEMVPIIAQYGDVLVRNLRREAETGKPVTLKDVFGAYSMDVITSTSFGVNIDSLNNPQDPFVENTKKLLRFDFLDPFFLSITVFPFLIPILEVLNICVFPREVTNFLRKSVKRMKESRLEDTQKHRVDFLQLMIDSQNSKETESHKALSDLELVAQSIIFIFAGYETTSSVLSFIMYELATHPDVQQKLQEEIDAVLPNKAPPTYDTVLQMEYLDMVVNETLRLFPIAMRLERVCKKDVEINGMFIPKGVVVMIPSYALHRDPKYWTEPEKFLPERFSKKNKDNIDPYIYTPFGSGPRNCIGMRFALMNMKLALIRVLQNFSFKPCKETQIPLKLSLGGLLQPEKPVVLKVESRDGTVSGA
Sequence of Cytochrome P450 2C19 (P33261 whole entry): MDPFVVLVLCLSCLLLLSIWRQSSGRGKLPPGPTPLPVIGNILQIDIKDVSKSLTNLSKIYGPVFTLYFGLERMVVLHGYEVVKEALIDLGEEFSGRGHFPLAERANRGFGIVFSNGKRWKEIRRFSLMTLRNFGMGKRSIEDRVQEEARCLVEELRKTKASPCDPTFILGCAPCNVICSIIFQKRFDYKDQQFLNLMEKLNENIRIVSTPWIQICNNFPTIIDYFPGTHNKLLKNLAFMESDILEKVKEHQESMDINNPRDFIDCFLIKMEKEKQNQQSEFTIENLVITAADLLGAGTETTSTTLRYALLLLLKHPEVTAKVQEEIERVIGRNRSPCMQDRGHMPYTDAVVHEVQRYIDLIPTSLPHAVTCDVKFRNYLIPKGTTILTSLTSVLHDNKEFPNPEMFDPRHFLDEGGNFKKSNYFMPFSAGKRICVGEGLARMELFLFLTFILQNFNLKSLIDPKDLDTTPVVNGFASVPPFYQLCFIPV
Sequence of Cytochrome P450 2D6 (P10635 whole entry): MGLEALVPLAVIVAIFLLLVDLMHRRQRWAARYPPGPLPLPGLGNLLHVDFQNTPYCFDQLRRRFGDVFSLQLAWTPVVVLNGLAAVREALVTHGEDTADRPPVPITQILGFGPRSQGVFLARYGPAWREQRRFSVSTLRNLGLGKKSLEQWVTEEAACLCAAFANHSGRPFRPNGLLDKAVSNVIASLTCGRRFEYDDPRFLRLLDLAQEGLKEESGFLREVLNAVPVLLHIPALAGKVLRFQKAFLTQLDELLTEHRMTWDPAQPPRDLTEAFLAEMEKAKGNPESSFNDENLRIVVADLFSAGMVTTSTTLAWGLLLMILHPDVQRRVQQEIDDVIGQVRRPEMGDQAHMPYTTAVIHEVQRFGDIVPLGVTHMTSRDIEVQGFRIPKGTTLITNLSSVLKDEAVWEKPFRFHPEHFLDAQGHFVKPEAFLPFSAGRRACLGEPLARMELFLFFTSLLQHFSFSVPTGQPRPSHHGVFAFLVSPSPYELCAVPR
Sequence of Cytochrome P450 2C9 (P11712 whole entry): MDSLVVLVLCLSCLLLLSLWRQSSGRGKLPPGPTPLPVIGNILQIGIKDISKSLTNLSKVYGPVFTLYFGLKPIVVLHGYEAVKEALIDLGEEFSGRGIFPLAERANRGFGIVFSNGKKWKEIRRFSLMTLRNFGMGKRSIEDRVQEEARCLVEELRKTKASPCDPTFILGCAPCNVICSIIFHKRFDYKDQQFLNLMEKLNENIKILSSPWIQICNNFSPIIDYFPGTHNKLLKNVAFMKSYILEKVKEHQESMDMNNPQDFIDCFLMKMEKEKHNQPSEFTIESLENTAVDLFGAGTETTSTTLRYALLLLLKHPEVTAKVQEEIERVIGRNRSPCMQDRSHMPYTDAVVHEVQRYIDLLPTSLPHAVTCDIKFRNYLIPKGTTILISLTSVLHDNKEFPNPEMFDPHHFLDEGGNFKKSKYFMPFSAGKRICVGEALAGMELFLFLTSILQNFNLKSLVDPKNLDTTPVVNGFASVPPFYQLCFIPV

Ki [1] [nM]	Structure (SMILES)	IC50 [2] [nM]	also measured
22.6	O=c1cc(OCc2ccccc2)ccn1-c1ccc2c(cnn2CC2=NCCN2)c1	8500	IC50 [3]: 38000 nM; half-life [4]: 9.67 h; half-life [5]: 4.33 h; solubility [6]: 410 µM (≈ 164 µg/mL); Activity [7]: 3.5%
11.2	COC[C@H]1CCCN1CCn1ncc2cc(-n3ccc(OCc4ccccc4)cc3=O)ccc21	800	–
3.1	O=c1cc(OCc2ccccc2)ccn1-c1ccc2c(cnn2CCN2CCC[C@@H]2CO)c1	2300	–
> 5000	CCCCn1ncc2cc(-n3ccc(OCc4ccccc4)cc3=O)ccc21	–	–
4.7	CN(C)CCn1ncc2cc(-n3ccc(OCc4ccccc4)cc3=O)ccc21	1800	–
–	O=c1cc(OCc2ccccc2)ccn1-c1ccc2c(cnn2CCN2CCCC2)c1	–	IC50 [3]: 10000 nM; IC50 [8]: > 10000 nM; half-life [4]: 11.6 h; half-life [5]: 5.05 h; solubility [6]: 492 µM (≈ 204 µg/mL); IC50 [9]: 14 nM; concentration at 6 h [10]: 2220 ng/mL; concentration at 6 h [11]: 1480 ng/g; Kp at 6 h [12]: 0.7
12.6	CN(C)CCCn1ncc2cc(-n3ccc(OCc4ccccc4)cc3=O)ccc21	1400	–
37.7	CN(C)CC(O)Cn1ncc2cc(-n3ccc(OCc4ccccc4)cc3=O)ccc21 (stereo not given)	12100	–
4.7	O=c1cc(OCc2ccccc2)ccn1-c1ccc2c(cnn2CCN2CC[C@H](O)C2)c1	9000	IC50 [3]: 7700 nM; IC50 [8]: > 10000 nM; IC50 [13]: > 10000 nM; IC50 [14]: > 10000 nM; IC50 [15]: > 10000 nM; half-life [4]: 7.22 h; half-life [5]: 4.82 h; solubility [6]: > 500 µM; Activity [7]: 3.3%; IC50 [16]: > 10000 nM
9.4	CO[C@H]1CCN(CCn2ncc3cc(-n4ccc(OCc5ccccc5)cc4=O)ccc32)C1	–	–
12	O=c1cc(OCc2ccccc2)ccn1-c1ccc2c(cnn2C[C@@H]2CCCN2)c1	2000	–
33	O=c1cc(OCc2ccccc2)ccn1-c1ccc2c(cnn2CC2C[C@@H](O)CN2)c1 (stereo not given in full)	> 30000	–
30.4	CN1CCN=C1Cn1ncc2cc(-n3ccc(OCc4ccccc4)cc3=O)ccc21	–	–
43.4	O=c1cc(OCc2ccccc2)ccn1-c1ccc2c(cnn2CCN2CCOCC2)c1	> 30000	–
17.3	O=c1cc(OCc2ccccc2)ccn1-c1ccc2c(cnn2CCN2CC3CC2CO3)c1 (stereo not given)	16000	–
24.3	O=c1cc(OCc2ccccc2)ccn1-c1ccc2c(cnn2CCN2CCNCC2)c1	–	–
9.7	O=c1c2cc(-c3ccccc3)oc2ccn1-c1ccc2c(cnn2CCN2CCCC2)c1	–	–
6.1	O=c1c2cc(-c3ccc(F)cc3)oc2ccn1-c1ccc2c(cnn2CCN2CCCC2)c1	–	–
5.2	O=c1c2cc(-c3ccc(Cl)cc3)oc2ccn1-c1ccc2c(cnn2CCN2CCCC2)c1	–	IC50 [9]: 23 nM; concentration at 6 h [17]: 141 ng/mL; concentration at 6 h [18]: 2250 ng/g; Kp at 6 h [19]: 16; Activity [20]: 4.5%
28	O=c1c2cc(-c3ccccc3Cl)oc2ccn1-c1ccc2c(cnn2CCN2CCCC2)c1	–	–
38	O=c1c2cc(-c3cccc(Cl)c3)oc2ccn1-c1ccc2c(cnn2CCN2CCCC2)c1	–	–
14	O=c1c2cc(-c3ccc(Cl)cc3Cl)oc2ccn1-c1ccc2c(cnn2CCN2CCCC2)c1	–	–
4.2	O=c1c2cc(-c3ccc(Cl)cc3F)oc2ccn1-c1ccc2c(cnn2CCN2CCCC2)c1	–	–
48	COc1cc(Cl)ccc1-c1cc2c(=O)n(-c3ccc4c(cnn4CCN4CCCC4)c3)ccc2o1	–	–
59	O=c1c2cc(-c3ccccn3)oc2ccn1-c1ccc2c(cnn2CCN2CCCC2)c1	–	–
1680	O=c1c2cc(-c3ncccn3)oc2ccn1-c1ccc2c(cnn2CCN2CCCC2)c1	–	–
